Measured values reported in US10526327B2, “Histone demethylase inhibitors” (CELGENE QUANTICEL RESEARCH, INC., priority 2013, dated 2020).

Test system: KDM5A/B
Assay: In vitro cell-based assay: immuno-blot quantification of tri-methyl H3K4 in ZR-75-1 breast cancer cells
Conditions: 72 hours, tri-methyl H3K4 level relative to GAPDH, percent of DMSO, read-out: Cellular IC50
Description: An assay to measure the degree of cellular inhibition of KDM5A and 5B was developed. This quantitative immuno-blotting assay measures the amount tri-methylated histone H3 at amino acid Lysine number 4, a specific substrate […] of the direct enzymatic activity of the histone demethylases KDM5A and KDM5B from extracts of the ZR-75-1 breast cancer cell line.
This assay is a fluorometric immunoassay for the quantification of tri-methyl H3K4 extracted from cells treated with test compound and is used as a measure of the cellular inhibition of KDM5A/B.
ZR-75-1 (PTEN null, ER+) breast cancer cells numbering 50,000 (ATCC) were seeded into each well of a 96-well tissue culture treated plate and then exposed to an 11 point dilution of test compound with final concentration ranges of test compound ranging from 1250 μM to 10 nM. Cells were left in the presence of test compound for 72 hours. Extracts were prepared containing all of the cellular histone material using detergent based lysis and sonication methods. These lysates were subsequently normalized for total protein content using a colorimetric bicinchonic acid assay (MicroBCA Pierce/Thermo Scientific). Normalized cell extracts were then subjected to typical immuno-blotting procedures using NuPage reagents (Life Technologies). Electrophoretically separated histones were then transferred and immobilized using polyvinylidene difluoride membrane (Immobilon-FL Millipore). The amount of tri-methylated lysine 4 of histone H3 was detected using an antibody specific to the tri-methylated state (Cell Signaling Technologies) and quantified on an infrared imager using a densitometry software package (Odyssey CLx, Image Studio, Li-Cor). This background subtracted densitometry value was reported as a ration of the GAPDH amount for that sample and then calculated as a percent of the DMSO treated sample. The software package XL-fit (IDBS) was then used to calculate a relative IC50 value for the dilution series of a given test compound according to the equation: fit=(D+((Vmax*(x^n))/((x^n)+(Km^n)))).

Structure (SMILES)	IC50
O=S(=O)(C1CC1)N1CCCC(n2cc(Oc3nc(O)c4ccncc4n3)cn2)C1 (stereo in doubt) [Example 151, 2-({1-[(3S)-1-(cyclopropanesulfonyl)piperidin-3-yl]-1H-pyrazol-4-yl}oxy)pyrido[3,4-d]pyrimidin-4-ol]	100 to 1000 nM
Oc1nc(OCCC(F)(F)F)nc2cnccc12 [Example 13, 2-(3,3,3-trifluoropropoxy)pyrido[3,4-d]pyrimidin-4-ol]	> 10000 nM
CC(C)CCOc1nc(O)c2ccncc2n1 [Example 15, 2-(3-methylbutoxy)pyrido[3,4-d]pyrimidin-4-ol]	> 10000 nM
Oc1nc(OCCc2ccccc2)nc2cnccc12 [Example 18, 2-(2-phenylethoxy)pyrido[3,4-d]pyrimidin-4-ol]	1000 to 10000 nM
Oc1nc(OCCCC(F)(F)F)nc2cnccc12 [Example 20, 2-(4,4,4-trifluorobutoxy)pyrido[3,4-d]pyrimidin-4-ol]	> 10000 nM
Cn1cnc(-c2nccc3c(O)nc(Oc4ccc(Cl)c(Cl)c4)nc23)c1 [Example 113, 2-(3,4-dichlorophenoxy)-8-(1-methyl-1H-imidazol-4-yl)pyrido[3,4-d]pyrimidin-4-ol]	100 to 1000 nM
C[C@H](c1ccccc1)n1cc(Oc2nc(O)c3ccncc3n2)cn1 [Example 117, 2-({1-[(1R)-1-phenylethyl]-1H-pyrazol-4-yl}oxy)pyrido[3,4-d]pyrimidin-4-ol]	1000 to 10000 nM
C[C@@H](c1ccccc1)n1cc(Oc2nc(O)c3ccncc3n2)cn1 [Example 118, 2-({1-[(1S)-1-phenylethyl]-1H-pyrazol-4-yl}oxypyrido) [3,4-d]pyrimidin-4-ol]	100 to 1000 nM
C[C@H](c1ccccc1F)n1cc(Oc2nc(O)c3ccncc3n2)cn1 [Example 119, 2-({1-[(1R)-1-(2-fluorophenyl)ethyl]-1H-pyrazol-4-yl}oxy)pyrido[3,4-d]pyrimidin-4-ol]	100 to 1000 nM
C[C@@H](c1ccccc1F)n1cc(Oc2nc(O)c3ccncc3n2)cn1 [Example 120, 2-({1-[(1s)-1-(2-fluorophenyl)ethyl]-1H-pyrazol-4-yl}oxy)pyrido[3,4-d]pyrimidin-4-ol]	1000 to 10000 nM
Oc1nc(Oc2cnn(Cc3cccc(Cl)c3)c2)nc2cnccc12 [Example 122, 2-({1-[(3-chlorophenyl)methyl]-1H-pyrazol-4-yl}oxy)pyrido[3,4-d]pyrimidin-4-ol]	1000 to 10000 nM
Oc1nc(Oc2cnn(CCN3CCOCC3)c2)nc2cnccc12 [Example 124, 2-({1-[2-(morpholin-4-yl)ethyl]-1H-pyrazol-4-yl}oxy)pyrido[3,4-d]pyrimidin-4-ol]	100 to 1000 nM
CCS(=O)(=O)N1CC[C@@H](n2cc(Oc3nc(O)c4ccncc4n3)cn2)C1 [Example 126, 2-({1-[(3R)-1-(ethanesulfonyl)pyrrolidin-3-yl]-1H-pyrazol-4-yl}oxy)pyrido[3,4-d]pyrimidin-4-ol]	> 10000 nM

Next, values leading:

IC50	Structure (SMILES)
1000 to 10000 nM	CCC(c1ccccc1)n1cc(Oc2nc(O)c3ccncc3n2)cn1 (stereo not drawn) [Example 115, 2-{[1-(1-phenylpropyl)-1H-pyrazol-4-yl]oxy}pyrido[3,4-d]pyrimidin-4-ol]
1000 to 10000 nM	Oc1nc(Oc2cnn(Cc3ccccc3Cl)c2)nc2cnccc12 [Example 121, 2-({1-[(2-chlorophenyl)methyl]-1H-pyrazol-4-yl}oxy)pyrido[3,4-d]pyrimidin-4-ol]
> 10000 nM	Oc1nc(Oc2cnn([C@@H]3CCNC3)c2)nc2cnccc12 [Example 125, 2-({1-[(3R)-pyrrolidin-3-yl]-1H-pyrazol-4-yl}oxy)pyrido[3,4-d]pyrimidin-4-ol]
1000 to 10000 nM	O=S(=O)(C1CC1)N1CC[C@@H](n2cc(Oc3nc(O)c4ccncc4n3)cn2)C1 [Example 127, 2-({1-[(3R)-1-(cyclopropanesulfonyl)pyrrolidin-3-yl]-1H-pyrazol-4-yl}oxy)pyrido[3,4-d]pyrimidin-4-ol]
1000 to 10000 nM	O=S(=O)(c1ccccc1)N1CC[C@@H](n2cc(Oc3nc(O)c4ccncc4n3)cn2)C1 [Example 128, 2-({1-[(3R)-1-(benzenesulfonyl)pyrrolidin-3-yl]-1H-pyrazol-4-yl}oxy)pyrido[3,4-d]pyrimidin-4-ol]
